Data on eleven molecules can be found in patent US4822805A, “Pyridyl-imidazole compounds which have useful pharmaceutical activity” (Fujisawa Pharmaceutical Co., Ltd., priority 1986, dated 1989).

In brackets after ≈: the same amount, converted by molar mass.

The subject of assay [1] is Platelet aggregation (collagen). Description: Anti-platelet activity, Test 3: collagen-induced platelet aggregation in blood after oral administration. In kind it is in vivo, Male Sprague-Dawley rats. Particulars: 32 mg/kg oral, blood collected one hour after; collagen 5.0 μg/ml. How it is done:
Male Sprague-Dawley rats weighing about 250 g were used after overnight fasting. One hour after oral administration of test compound or vehicle of test compound (control), blood was collected into a tube containing 0.1 vol. of 3.8% sodium citrate. To the 0.45 ml of blood, 0.05 ml of collagen (final concentration 5.0 μg/ml) was added and then incubated for 5 min. at 37° C. under shaking. The reaction was terminated by addition of 1 ml of 10 mM phosphate buffered saline (pH 7.4) containing 11.5 mM EDTA and 1% formalin. The reaction mixture was centrifuged at 70 xg for 5 min. and platelet count of upper phase was measured by Technicon Auto Analizer.
Platelet aggregation was calculated according to the following formula: [formula] A: Platelet count after addition of vehicle of collagen B: Platelet count after addition of collagen.
Inhibition of the test compound was calculated according to the following formula. [formula] C: Platelet aggregation (%) of control D: Platelet aggregation (%) of Test compound.

Assay [2] has as its system Platelet aggregation (9,11-azo PGH2). Put plainly: Anti-platelet activity, Test 4: 9,11-azo PGH2-induced platelet aggregation in platelet rich plasma. It is filed as cell-based, rabbits. The conditions noted are these: Oryctolagus cuniculus, rabbit PRP, 9,11-azo PGH2 1.0 μM, 37° C. As to the method:
The blood was collected from the carotid artery of rabbits into plastic vessels containing 0.1 volume of 3.8% sodium citrate. Platelet rich plasma (PRP) was prepared by centrifugation at 150 g for 15 minutes. Platelet aggregation was investigated by using the turbidimetric method with an aggregometer (NKK HEMATRACER 1). To the 225 μl of PRP, 25 μl of test compound solution was added, and then stirred at 1000 rpm for 2 minutes at 37° C. To the solution 5 μl of 9,11-azo PGH2 (final 1.0 μM) was added as an aggregating inducer.

Assay [3] concerns atrial strip. Description: Cardiotonic activity, Test 2: contractile force and heart rate of isolated atrial strip. The conditions noted are these: Cavia porcellus, 0.5 h; 1 × 10^-5 g/ml; 30° C.; observed for 30 min; percentage before and after dosing. Further details: species or system Male Hartley strain guinea-pigs. As to the method:
Male Hartley strain guinea-pigs, weighing 530-600 g, were killed by bleeding and the heart was removed. An atrial strip was removed and suspended in an organ bath containing 50 ml of Tyrode's solution maintained at 30° C. and aerated with a gas mixture of 95% O2 -5% CO2. The atrium was connected to a strain gauge under an initial tension of 0.4-0.6 g. […] The effect was expressed as percentage values before and after dosing.

For assay [4], the system named is left ventricular pressure (dp/dt max). Put plainly: Cardiotonic activity, Test 1: dp/dt max change in anesthetized dogs. The conditions noted are these: 1.0 mg/kg, injected into the femoral vein. It is filed as in vivo, Mongrel dogs. As to the method: Mongrel dogs of either sex were anesthetized with sodium pentobarbital, 35 mg/kg, i.p.. The animals were allowed to breathe spontaneously. The left carotid artery was isolated and a catheter (USCI, #8F) filled with heparinized saline was inserted and advanced into the left ventricle. The catheter was connected to a pressure transducer (Nihonkohden, MPU-0.5A) to measure the left ventricular pressure, from which dp/dt max was derived by analog computing. The measure the systemic blood pressure the left femoral artery was cannulated. The blood pressure pulse was used to trigger a heart rate meter. Another catheter was positioned in the vena cave through right femoral vein for injection of drugs. Systemic blood pressure, left ventricular pressure, dp/dt max and heart rate was recorded simultaneously on a polygram (Nihonkohden, RJG-4008).
Test compound was dissolved in distilled water (0.2 ml/kg) or dimethyl sulfoxide (0.04 ml/kg) and injected into the femoral vein. The parameters after dosing were compared with those during the predosing period.
Test results were represented in terms of percentage of dp/dt max changes (dp/dt M.C.) calculated by following formula. [formula]

The test system of assay [5] is carrageenin foot edema. Description: Anti-inflammatory activity, Test 5: carrageenin foot edema. It is filed as in vivo, Male Sprague-Dawley rats. Particulars: 32 mg/kg oral, 60 minutes before phlogogen; edema volume 3 hours after phlogogen; 1% carrageenin. As to the method:
Male Sprague-Dawley rats weighing about 180 g were used in groups of five. Paw edema was induced by subplantar injection of 1% carrageenin (0.1 ml/rat) into the right hind paw in carrageenin foot edema. The test compound was suspended in methylcellulose and administered orally 60 minutes before halogogen. Paw volume was measured with plethysmometer (Ugo Basil Co., Ltd.) by water displacement immersing the paw to the lateral malleolus. The difference of paw volume before and 3 hours after the phlogogen was designated as edema volume.
The data was analyzed statistically by student's t-test.
In general terms: The carrageenan paw model is a standard test of acute inflammation.

As a reminder, the IC50 is the concentration needed to halve the response being measured. One may read the inhibition as the percentage by which the read-out fell short of the control. Read a low inhibition as little suppression.

As to `Cc1nc(-c2ccccc2F)[nH]c1-c1cccnc1` [Compound i, 2-(2-Fluorophenyl)-4-methyl-5-(3-pyridyl)imidazole], the “Inhibition (platelet aggregation)” value in assay [1] came to 100%. In addition, in assay [2], inhibition was half-maximal at 0.11 µg/mL (≈ 0.434 µM) (IC50). For the molecule `CCc1[nH]c(-c2ccc(OC)cc2OC)nc1-c1ccncc1` [Compound f, 2-(2,4-Dimethoxyphenyl)-5-ethyl-4-(4-pyridyl)imidazole], in assay [3], the activation at 10 µg/mL was found to be 61.1% and the inhibition at 10 µg/mL stood at 30.7%. For `COc1ccc(-c2nc(-c3ccncc3)c(C)[nH]2)c(OC)c1` [Compound e, 2-(2,4-Dimethoxyphenyl)-5-methyl-4-(4-pyridyl)imidazole], in assay [3], the activation at 10 µg/mL was 58% and the inhibition at 10 µg/mL was 26.8%.

Turning to `CCc1[nH]c(-c2ccc(OC)c(OC)c2)nc1-c1ccccn1` [Compound d, 2-(3,4-Dimethoxyphenyl)-5-ethyl-4-(2-pyridyl)imidazole], in assay [3], the activation at 10 µg/mL is 51.6% and the inhibition at 10 µg/mL was 14.1%.

In assay [3], `COc1ccc(-c2nc(-c3cccnc3)c(C)[nH]2)c(OC)c1` [Compound a, 2-(2,4-Dimethoxyphenyl)-5-methyl-4-(3-pyridyl)imidazole] displayed an activation at 10 µg/mL of 45% and an inhibition at 10 µg/mL of 21.2%. In addition, the “dp/dt M.C. (percentage of dp/dt max changes)” value in assay [4] is 82%. Turning to `COc1ccccc1-c1nc(-c2cccnc2)c(C)[nH]1` [Compound h, 2-(2-Methoxyphenyl)-5-methyl-4-(3-pyridyl)imidazole], the “Inhibition (paw edema)” value in assay [5] amounted to 62.7%. Consider `CC(=O)Nc1ccccc1-c1nc(C)c(-c2cccnc2)[nH]1` [Compound j, 2-(2-Acetamidophenyl)-4-methyl-5-(3-pyridyl)imidazole], for which the “Inhibition (platelet aggregation)” value in assay [1] is on record as 91.3%. In addition, in assay [2], the 50% inhibitory concentration (IC50) stood at 0.39 µg/mL (≈ 1.33 µM). Molecule `COc1cc(Cl)ccc1-c1nc(-c2cccnc2)c(C)[nH]1` [Compound k, 2-(4-Chloro-2-methoxyphenyl)-5-methyl-4-(3-pyridyl)imidazole] registered an IC50 in assay [2] of 0.16 µg/mL (≈ 0.534 µM). For the same molecule, the “Inhibition (paw edema)” value in assay [5] is listed as 72.3%.

For the molecule `CCc1nc(-c2ccc(OC)cc2OC)[nH]c1-c1cccnc1` [Compound b, 2-(2,4-Dimethoxyphenyl)-4-ethyl-5-(3-pyridyl)imidazole], in assay [4], the “dp/dt M.C. (percentage of dp/dt max changes)” value stood at 133%. On to `COc1cc(NC(C)=O)c(Cl)cc1-c1nc(-c2cccnc2)c(C)[nH]1` [Compound g, 2-(4-Acetamido-5-chloro-2-methoxyphenyl)-5-methyl-4-(3-pyridyl)imidazole], for which, in assay [1], the “Inhibition (platelet aggregation)” value is 87.6%.

For the molecule `COc1cc(SC)ccc1-c1nc(-c2cccnc2)c(C)[nH]1` [Compound c, 2-(2-Methoxy-4-methylthiophenyl)-5-methyl-4-(3-pyridyl)imidazole], the “dp/dt M.C. (percentage of dp/dt max changes)” value in assay [4] was 167%.
